Test results reported in US7026334B1, “Thiazolidine compounds and pharmaceutical compositions exhibiting thrombopoietin receptor agonism” (Shionogi & Co., Ltd., priority 1999, dated 2006).

Columns and labels:
[1] = molecular target: T1, human TPO receptor (hTPOR) (Homo sapiens, UniProt P40238); assay: Proliferation of TPO dependent BaF/hTPOR cells (thrombopoietic activity, WST-1); assay type: cell-based; conditions: 20 hours + 4 hours WST-1, absorbance at 450 nm, ED50 = half concentration of the concentration showing the maximum thrombopoietic activity
T1 construct: expressed in transfected cells; host or cells: BaF-BO3 (murine IL-3 dependent pro-B cell line), giving BaF/hTPOR
T1 sequence (P40238 26-635): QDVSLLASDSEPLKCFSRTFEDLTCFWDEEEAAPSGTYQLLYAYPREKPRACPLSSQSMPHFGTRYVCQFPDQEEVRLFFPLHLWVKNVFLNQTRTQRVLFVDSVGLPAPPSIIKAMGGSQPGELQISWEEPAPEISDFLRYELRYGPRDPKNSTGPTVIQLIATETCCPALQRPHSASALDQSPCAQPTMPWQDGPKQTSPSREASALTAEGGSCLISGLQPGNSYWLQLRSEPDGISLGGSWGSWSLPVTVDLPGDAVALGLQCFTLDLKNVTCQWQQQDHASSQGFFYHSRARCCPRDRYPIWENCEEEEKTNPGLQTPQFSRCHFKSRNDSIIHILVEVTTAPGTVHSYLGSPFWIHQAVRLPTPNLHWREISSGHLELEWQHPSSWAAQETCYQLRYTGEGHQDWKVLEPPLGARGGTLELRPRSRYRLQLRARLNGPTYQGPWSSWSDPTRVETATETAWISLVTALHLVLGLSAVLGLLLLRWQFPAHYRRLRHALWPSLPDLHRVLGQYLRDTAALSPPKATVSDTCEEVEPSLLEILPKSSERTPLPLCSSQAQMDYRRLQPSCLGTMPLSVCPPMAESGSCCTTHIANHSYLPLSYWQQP
From the text: The TPO dependent BaF/hTPOR cell line which was established by introducing human TPO receptor (hTPOR) into BaF-BO3 cells according to Collins et al (J. Cell. Physiol., 137:293-298 (1988)) was used to test the thrombopoietic activity of the present compound (B-17). The DNA sequences and encoded peptide sequences for human hTPOR have been described by Vigon et al (Proc. Natl. Acad. Sci. USA, 89:5640-5644 (1992)). […] BAF/hTPOR cells were maintained in RPMI medium and WEHI-3B conditioned medium as a source of murine interleukin-3 (IL-3). These cells were washed and resuspended in RPMI medium without a source of murine IL-3 and seeded into each well of 96-well microtiter plates at a density of […] cells per well in the absence or presence of various concentration of hTPO or the present compound. After incubation at 37° C. for 20 hours in the 5% CO2 incubator, 10% WST-1 reagent (Takara Biomedicals, Japan) was added to each wells and the cells were further incubated for 4 hours. Table 24 exemplifies the ED50 for tested compounds of the present invention, wherein the ED50 is the half concentration of the concentration showing the maximum thrombopoietic activity

[2] = test system: BaF-BO3 cells; assay: Growth of the parental cell line BaF-BO3 not expressing TPOR; assay type: cell-based; conditions: FIG. 3

Compound	EC50 [1] [nM]	proliferation of parental BaF cells bearing no TPOR [2]
O=C1NC(=S)S/C1=C\c1ccc(C(=O)Nc2nc(-c3ccc(I)cc3)cs2)cc1 [Compound A-73]	70	–
O=C1NC(=S)S/C1=C\c1ccc(C(=O)Nc2nc(-c3ccc(C(F)(F)F)cc3)cs2)cc1 [Compound A-61]	69	–
Cc1sc(NC(=O)c2ccc(/C=C3\SC(=S)NC3=O)cc2)nc1-c1ccc(Cl)cc1 [Compound A-37]	27	–
O=C1NC(=S)S/C1=C\c1ccc(C(=O)Nc2nc(-c3ccc(Cl)s3)cs2)cc1 [Compound A-15]	26	–
O=C1NC(=S)S/C1=C\c1ccc(C(=O)Nc2nc(-c3cccc(C(F)(F)F)c3)cs2)cc1 [Compound A-53]	23	–
COC(=O)c1sc(NC(=O)c2ccc(/C=C3\SC(=S)NC3=O)cc2)nc1-c1ccc(F)cc1 [Compound A-42]	72	–
COC(=O)c1ccc(-c2csc(NC(=O)c3ccc(/C=C4\SC(=S)NC4=O)cc3)n2)cc1 [Compound A-12]	11	–
O=C1NC(=O)/C(=C/c2ccc(C(=O)Nc3nc4c(s3)CCc3ccccc3-4)cc2)S1 [Compound B-21]	84	–
O=C1NC(=S)S/C1=C\c1ccc(C(=O)Nc2nc(-c3cc(F)c(F)cc3F)cs2)cc1 [Compound A-71]	80	–
CCc1sc(NC(=O)c2ccc(/C=C3\SC(=S)NC3=O)cc2)nc1-c1ccccc1 [Compound A-38]	47	–
O=C1NC(=O)C(=Cc2ccc(C(=O)Nc3nc(-c4ccc(Cl)c(Cl)c4)cs3)cc2)O1 [Compound C-1]	68	–
O=C1NC(=S)S/C1=C\c1ccc(C(=O)Nc2nc(-c3cccc(Br)c3)cs2)cc1 [Compound A-72]	35	–
CCOC(=O)c1sc(NC(=O)c2ccc(/C=C3\SC(=S)NC3=O)cc2)nc1-c1ccccc1 [Compound A-32]	77	–
O=C1NC(=O)C(=Cc2ccc(C(=O)Nc3nc(-c4ccc(Cl)c(Cl)c4)cs3)s2)S1 [Compound E-2]	62	–
O=C1NC(=O)C(=Cc2ccc(C(=O)Nc3nc(-c4ccc(Br)cc4)cs3)cc2)S1 [Compound B-3]	47	–
O=C1NC(=S)S/C1=C\c1ccc(C(=O)Nc2nc(-c3cccc(F)c3)cs2)cc1 [Compound A-64]	47	–
O=C1NC(=S)S/C1=C\c1ccc(C(=O)Nc2nc(-c3cccs3)cs2)cc1 [Compound A-16]	49	–
O=C1NC(=S)S/C1=C\c1ccc(C(=O)Nc2nc3c(s2)CSc2ccccc2-3)cc1 [Compound A-59]	84	–
O=C1NC(=S)S/C1=C\c1ccc(C(=O)Nc2nc(-c3ccc(F)cc3)c(CCCl)s2)cc1 [Compound A-43]	73	–
O=C1NC(=O)/C(=C/c2ccc(C(=O)Nc3nc(-c4ccc(F)c(F)c4)cs3)cc2)S1 [Compound B-18]	16	–
TPO: Thrombopoietin, polypeptide cytokine composed of 332 amino acids; Human TPO (hTPO) purchased from R&D Systems	–	dose not have any ability to support proliferation
O=C1NC(=S)S/C1=C\c1ccc(C(=O)Nc2nc3c(s2)CCCc2ccccc2-3)cc1 [Compound A-50]	26	–
O=C1NC(=S)S/C1=C\c1ccc(C(=O)Nc2nc(-c3cccc(OC(F)(F)F)c3)cs2)cc1 [Compound A-63]	16	–
O=C1NC(=S)S/C1=C\c1ccc(C(=O)Nc2nc(-c3ccc(F)cc3F)cs2)cc1 [Compound A-70]	20	–

Compound	EC50 [1] [nM]	proliferation of parental BaF cells bearing no TPOR [2]
CCCCOC(=O)c1ccc(-c2csc(NC(=O)c3ccc(/C=C4\SC(=S)NC4=O)cc3)n2)cc1 [Compound A-26]	72	–
O=C1NC(=S)S/C1=C\c1ccc(C(=O)Nc2nc(-c3ccc([N+](=O)[O-])cc3)cs2)cc1 [Compound A-14]	15	–
O=C1NC(=O)C(=Cc2ccc(C(=O)Nc3nc(-c4ccc(Cl)cc4)cs3)cc2)S1 [Compound B-4]	37	–
Cc1ccc(-c2csc(NC(=O)c3ccc(C=C4SC(=O)NC4=O)cc3)n2)cc1 [Compound B-5]	47	–
O=C1NC(=S)S/C1=C\c1ccc(C(=O)Nc2nc(-c3ccc(F)c(F)c3)cs2)cc1 [Compound A-20]	29	–
O=C1NC(=O)/C(=C/c2ccc(C(=O)Nc3nc(-c4cccs4)cs3)cc2)S1 [Compound B-15]	77	–
CC(C)(C)c1ccc(-c2csc(NC(=O)c3ccc(/C=C4\SC(=S)NC4=O)cc3)n2)cc1 [Compound A-11]	31	–
O=C1NC(=O)/C(=C/c2ccc(C(=O)Nc3nc(-c4ccc(Cl)c(Cl)c4)cs3)cc2)S1 [Compound B-16]	20	–
O=C1NC(=O)/C(=C/c2ccc(C(=O)Nc3nc(-c4ccc(Cl)s4)cs3)cc2)S1 [Compound B-14]	23	–
O=C1NC(=S)S/C1=C\c1ccc(C(=O)Nc2nc(-c3ccc(Br)s3)cs2)cc1 [Compound A-21]	41	–
O=C1NC(=S)S/C1=C\c1ccc(C(=O)Nc2nc3c(s2)CCc2ccccc2-3)cc1 [Compound A-49]	35	–
O=C1NC(=O)C(=Cc2ccc(C(=O)Nc3nc(-c4ccc(F)cc4)cs3)cc2)S1 [Compound B-2]	11	–
O=C1NC(=S)S/C1=C\c1ccc(C(=O)Nc2nc(-c3ccc(Cl)c(Cl)c3)cs2)cc1 [Compound A-1]	12	–
O=C1NC(=S)SC1=Cc1ccc(C(=O)Nc2nc(-c3ccccc3)cs2)cc1 [Compound A-2]	58	–
O=C1NC(=S)SC1=Cc1ccc(C(=O)Nc2nc(-c3ccc(F)cc3)cs2)cc1 [Compound A-3]	17	–
O=C1NC(=O)C(=Cc2ccc(C(=O)Nc3nc(-c4ccccc4)cs3)cc2)S1 [Compound B-1]	71	–
O=C1NC(=S)SC1=Cc1ccc(C(=O)Nc2nc(-c3ccc(-c4ccccc4)cc3)cs2)cc1 [Compound A-7]	60	–
CC(C)OC(=O)c1ccc(-c2csc(NC(=O)c3ccc(/C=C4\SC(=S)NC4=O)cc3)n2)cc1 [Compound A-25]	99	–
O=C1NC(=S)SC1=Cc1ccc(C(=O)Nc2nc(-c3ccc(Cl)cc3)cs2)cc1 [Compound A-5]	22	–
Cc1cc(Br)sc1-c1csc(NC(=O)c2ccc(/C=C3\SC(=S)NC3=O)cc2)n1 [Compound A-56]	96	–
O=C1NC(=S)S/C1=C\c1ccc(C(=O)Nc2nc(-c3ccccc3F)cs2)cc1 [Compound A-67]	50	–
O=C1NC(=S)SC1=Cc1ccc(C(=O)Nc2nc(-c3ccc(Br)cc3)cs2)cc1 [Compound A-4]	36	–
O=C1NC(=O)C(=Cc2ccc(C(=O)Nc3nc(-c4ccc(-c5ccccc5)cc4)cs3)cc2)S1 [Compound B-6]	72	–
Cc1ccc(-c2csc(NC(=O)c3ccc(C=C4SC(=S)NC4=O)cc3)n2)cc1 [Compound A-6]	45	–
